From ChEMBL document CHEMBL5113486, “Hit-to-lead optimization of novel phenyl imidazole carboxamides that are active against Leishmania donovani” (Eur J Med Chem, 2022)
pIC50: −log10 of the molar value.

Legend:
[1] = test system: Leishmania donovani; test: Antileishmanial activity against Leishmania donovani infected in human THP-1 cells assessed as growth inhibition by intramacrophage assay; type: functional, organism-based
[2] = Cytotoxicity against human THP-1 cells assessed as cell growth inhibition; type: toxicity, cell-based
[3] = Selectivity index, ratio of CC50 for cytotoxicity against human THP-1 cells to IC50 for antileishmanial activity against Leishmania donovani infected in human THP-1 cells; type: toxicity, cell-based; conditions: read-out: Ratio CC50/IC50

Row | Structure (SMILES) | pIC50 [1] | CC50 [2] [µM] | selectivity ratio [3]
1 | COc1ccc(-c2cnc(NC(=O)C3CCOCC3)n2C)cc1 | < 4.00 | > 100 | > 1
2 | COc1ccc(-c2cnc(NC(=O)CCc3ccccc3)n2C)cc1 | 4.66 | > 100 | > 4.5
3 | COc1ccc(-c2cnc(NC(=O)c3cccc(OC)c3)n2C)cc1 | < 4.00 | > 100 | > 1
4 | COc1ccc(-c2cnc(NC(=O)c3cccc(O)c3)n2C)cc1 | 4.27 | > 100 | > 1.9
5 | CCCn1c(-c2ccc(OC)cc2)cnc1NC(=O)c1ccc(F)cc1 | 4.74 | > 100 | > 1
6 | Cc1ccc(C(=O)Nc2ncc(-c3ccccc3)o2)cc1 | 5.85 | 26 | 19
7 | COc1ccc(-c2cnc(NC(=O)c3ccccn3)n2C)cc1 | 4.89 | > 100 | > 7.7
8 | COc1ccc(CN(C)C(=O)NC(=O)c2ccc(F)cc2)cc1 | < 4.30 | > 50 | > 1
9 | COc1ccc(-c2cnc(NC(=O)c3cccc(Cl)c3)n2C)cc1 | < 5.00 | > 28 | > 2.8
10 | O=C(Nc1ncc(-c2ccccc2)o1)c1ccc(Cl)cc1 | 6.48 | 10 | 30
11 | COc1ccc(-c2cnc(NC(=O)c3ccc(O)cc3)n2C)cc1 | < 4.00 | > 100 | > 1
12 | COc1ccc(-c2cnc(NC(=O)c3ccc(F)cc3)n2C(C)C)cc1 | < 4.30 | > 50 | > 1
13 | COc1ccc(-c2cnc(NC(=O)c3cccc([N+](=O)[O-])c3)n2C)cc1 | < 4.00 | > 100 | > 1
14 | COc1ccc(-c2cnc(NC(=O)c3ccc(C)cc3)n2C)cc1 | 4.54 | > 100 | > 3.4
15 | COc1ccc(-c2cnc(NC(=O)c3ccccc3Br)n2C)cc1 | < 4.00 | > 100 | > 1
16 | COc1ccc(CNC(=O)NC(=O)c2ccc(F)cc2)cc1 | < 4.30 | > 50 | > 1
17 | COc1ccc(-c2cnc(NC(=O)c3ccccc3Cl)n2C)cc1 | 4.89 | > 50 | > 3.8
18 | COc1ccc(C(=O)Nc2ncc(-c3ccc(OC)cc3)n2C)cc1 | < 4.00 | > 100 | > 1
19 | COc1ccc(-c2cnc(NC(=O)c3ccc(Cl)cc3)n2C)cc1 | 5.09 | > 100 | > 12
20 | COc1ccc(-c2cnc(NC(=O)c3ccccc3OC)n2C)cc1 | 4.48 | > 100 | > 3
21 | CCC(=O)Nc1ncc(-c2ccc(OC)cc2)n1C | < 4.00 | > 100 | > 1
22 | COc1ccc(-c2cnc(NC(=O)c3ccc(F)cc3)n2-c2ccccc2)cc1 | 5.21 | 8.8 | > 2.9
23 | COc1ccc(-c2cccc(NC(=O)c3ccc(F)cc3)n2)cc1 | < 4.00 | > 100 | > 1
24 | COc1ccc(-c2ccnc(NC(=O)c3ccc(F)cc3)c2)cc1 | < 4.00 | > 100 | > 1
25 | COc1ccc(-c2cnc(NC(=O)c3ccccc3[N+](=O)[O-])n2C)cc1 | < 4.30 | > 50 | > 1
26 | C[C@@H]1[C@H](O)[C@@H](C)/C=C/C=C/C=C/C=C/C=C/C=C/C=C/[C@H](O[C@@H]2O[C@H](C)[C@@H](O)[C@H](N)[C@@H]2O)C[C@@H]2O[C@](O)(C[C@@H](O)C[C@@H](O)[C@H](O)CC[C@@H](O)C[C@@H](O)CC(=O)O[C@H]1C)C[C@H](O)[C@H]2C(=O)O [AMPHOTERICIN B] | 6.92 | 6 | 
27 | CCCCCCCCCCCCCCCCOP(=O)([O-])OCC[N+](C)(C)C [MILTEFOSINE] | 6.41 | > 20 | 
